From patent publication EP0694535A1, “Non-peptidyl tachykinin receptor antagonists” (ELI LILLY AND COMPANY, priority 1994, dated 1996)

Target: T1, human NK-2 receptor (Homo sapiens, UniProt P21452)
T1 construct: expressed in transfected cells; host or cells: CHO-hNK-2R cells (CHO-derived), membrane preparation
T1 sequence (P21452 1-398): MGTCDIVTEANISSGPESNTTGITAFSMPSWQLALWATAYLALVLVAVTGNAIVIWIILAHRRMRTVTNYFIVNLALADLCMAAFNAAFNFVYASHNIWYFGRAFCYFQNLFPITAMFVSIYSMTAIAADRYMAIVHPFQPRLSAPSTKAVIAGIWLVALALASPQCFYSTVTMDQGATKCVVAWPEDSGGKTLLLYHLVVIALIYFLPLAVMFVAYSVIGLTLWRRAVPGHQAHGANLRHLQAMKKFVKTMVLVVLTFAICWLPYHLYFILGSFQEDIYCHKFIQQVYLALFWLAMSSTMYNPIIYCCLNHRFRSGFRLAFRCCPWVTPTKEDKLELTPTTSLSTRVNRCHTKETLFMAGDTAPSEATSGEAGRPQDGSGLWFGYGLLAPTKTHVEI
Assay: NK-2 Receptor Binding Assay (CHO-hNK-2R membranes, iodohistidyl-neurokinin A)
Settings: inhibition of neurokinin A binding at ten micromolar, read-out: Percent Inhibition @ 10 μM
Method: The CHO-hNK-2R cells, a CHO-derived cell line transformed with the human NK-2 receptor, expressing about 400,000 such receptors per cell, were grown in 75 cm flasks or roller bottles in minimal essential medium (alpha modification) with 10% fetal bovine serum. The gene sequence of the human NK-2 receptor is given in N.P. Gerard, et al., Journal of Biological Chemistry, 265:20455-20462 (1990).
For preparation of membranes, 30 confluent roller bottle cultures were dissociated by washing each roller bottle with 10 ml of Dulbecco's phosphate buffered saline (PBS) without calcium and magnesium, followed by addition of 10 ml of enzyme-free cell dissociation solution (PBS-based, from Specialty Media, Inc.). After an additional 15 minutes, the dissociated cells were pooled and centrifuged at 1,000 RPM for 10 minutes in a clinical centrifuge. Membranes were prepared by homogenization of the cell pellets in 300 ml 50 mM Tris buffer, pH 7.4 with a Tekmar® homogenizer for 10-15 seconds, followed by centrifugation at 12,000 RPM (20,000 x g) for 30 minutes using a Beckman JA-14® rotor. The pellets were washed once using the above procedure. and the final pellets were resuspended in 100-120 ml 50 mM Tris buffer, pH 7.4, and 4 ml aliquots stored frozen at -70 °C. The protein concentration of this preparation was 2 mg/ml.
For the receptor binding assay, one 4-ml aliquot of the CHO-hNK-2R membrane preparation was suspended in 40 ml of assay buffer containing 50 mM Tris, pH 7.4, 3 mM manganese chloride, 0.02% bovine serum albumin (BSA) and 4 µg/ml chymostatin. A 200 µl volume of the homogenate (40 µg protein) was used per sample. The radioactive ligand was [[…]]iodohistidyl-neurokinin A (New England Nuclear, NEX-252), 2200 Ci/mmol. The ligand was prepared in assay buffer at 20 nCi per 100 µl; the final concentration in the assay was 20 pM. Non-specific binding was determined using 1 µM eledoisin. Ten concentrations of eledoisin from 0.1 to 1000 nM were used for a standard concentration-response curve.
All samples and standards were added to the incubation in 10 µl dimethylsulfoxide (DMSO) for screening (single dose) or in 5 µl DMSO for IC₅₀ determinations. The order of additions for incubation was 190 or 195 µl assay buffer, 200 µl homogenate, 10 or 5 µl sample in DMSO, 100 µl radioactive ligand. The samples were incubated 1 hr at room temperature and then filtered on a cell harvester through filters which had been presoaked for two hours in 50 mM Tris buffer, pH 7.7, containing 0.5% BSA. The filter was washed 3 times with approximately 3 ml of cold 50 mM Tris buffer, pH 7.7. The filter circles were then punched into 12 x 75 mm polystyrene tubes and counted in a gamma counter.
Table II, infra, provides a representative sample of the effectiveness as NK-2 receptor antagonists of many of the compounds of Formula I. The first column provides the Example number of the compound tested. The second column provides either the percent inhibition of neurokinin A binding when the compound is present in a ten micromolar concentration or the amount of compound (in micromolar amounts) necessary to inhibit fifty percent of the binding of neurokinin A. Those values which represent IC₅₀ values are designated by parentheses.

Row | inhibition at 10 µM | SMILES
1 | 48.5% | Cc1cccc(-c2nc3ccc(OCCN4CCCC4)cc3n2Cc2ccccc2)c1 [Example 86, 1-benzyl-2-(3-methylphenyl)-6-[2-(1-pyrrolidinyl)ethoxy]benzimidazole]
2 | 64.4% | Cc1cccc(-c2nc3ccc(OCCCCl)cc3n2Cc2ccccc2)c1 [Example 97, 1-benzyl-2-(3-methylphenyl)-6-(3-chloropropoxy)-benzimidazole]
3 | 38.4% | Cc1cccc(-c2nc3ccc(OCCCN(C)C)cc3n2Cc2ccccc2)c1 [Example 94, 1-benzyl-2-(3-methylphenyl)-6-[3-(N,N-dimethylamino)propoxy]benzimidazole]
4 | 34% | CCN(CCOc1ccc2nc(-c3cccc(C)c3)n(Cc3ccccc3)c2c1)c1ccccc1 [Example 90, 1-benzyl-2-(3-methylphenyl)-6-[2-(N-phenyl-N-ethylamino)ethoxy]benzimidazole]
5 | 24.5% | Cc1cccc(-c2nc3ccc(OCCN(Cc4ccccc4)Cc4ccccc4)cc3n2Cc2ccccc2)c1 [Example 89, 1-benzyl-2-(3-methylphenyl)-6-[2-(N,N-dibenzylamino)ethoxy]benzimidazole]

The remaining lines, values behind:

Row | SMILES | inhibition at 10 µM
6 | Cc1cccc(-c2nc3ccc(OCCN(C)C)cc3n2Cc2ccccc2)c1 [Example 88, 1-benzyl-2-(3-methylphenyl)-6-[2-(N,N-dimethylamino)ethoxy]benzimidazole] | 31.6%
7 | Cc1cccc(-c2nc3ccc(OCCN(C(C)C)C(C)C)cc3n2Cc2ccccc2)c1 [Example 91, 1-benzyl-2-(3-methylphenyl)-6-[2-(N,N-isopropylamino)ethoxy]benzimidazole] | 60.7%
8 | Cc1cccc(-c2nc3ccc(OCCN4CCOCC4)cc3n2Cc2ccccc2)c1 [Example 87, 1-benzyl-2-(3-methylphenyl)-6-[2-(4-morpholinyl)ethoxy]benzimidazole] | 81.9%
9 | Cc1cccc(-c2nc3ccc(OCC(C)N(C)C)cc3n2Cc2ccccc2)c1 (centres unmarked) [Example 96, 1-benzyl-2-(3-methylphenyl)-6-[2-(N,N-dimethylamino)propoxy]-benzimidazole] | 34%
10 | Cc1cccc(-c2nc3ccc(O)cc3n2Cc2ccccc2C(F)(F)F)c1 [Example 120, 1-(2-trifluoromethylbenzyl)-2-(3-methylphenyl)-6-hydroxybenzimidazole] | 55.9%
11 | CCN(CC)CCOc1ccc2nc(-c3cccc(C)c3)n(Cc3ccccc3)c2c1 [Example 93, 1-benzyl-2-(3-methylphenyl)-6-[2-(N,N-diethylamino)ethoxy]benzimidazole] | 42%
12 | COc1cc(-c2nc3ccc(O)cc3n2Cc2ccccc2C(F)(F)F)cc(OC)c1OC [Example 104, 1-(2-trifluoromethylbenzyl)-2-(3,4,5-trimethoxyphenyl)-6-hydroxybenzimidazole] | 39.3%

Same assay, conditions: values in parentheses, amount necessary to inhibit fifty percent of the binding of neurokinin A

Row | IC50 | SMILES
13 | 7.24 µM | Cc1cccc(-c2nc3ccc(OCCCl)cc3n2Cc2ccccc2)c1 [Example 98, 1-benzyl-2-(3-methylphenyl)-6-(2-chloroethoxy)-benzimidazole]
14 | 6.8 µM | Cc1cccc(-c2nc3ccc(OCCCN4CCCC4)cc3n2Cc2ccccc2)c1 [Example 100, 1-benzyl-2-(3-methylphenyl)-6-[3-(pyrrolidin-1-yl)propoxy)benzimidazole]
15 | 1.04 µM | Cc1cccc(-c2nc3ccc(OCCCN4CCCCCC4)cc3n2Cc2ccccc2)c1 [Example 101, 1-benzyl-2-(3-methylphenyl)-6-[3-(hexamethyleneimin-1-yl)propoxy)benzimidazole]

Second part, the compound before the results:

Row | SMILES | IC50
16 | COc1cc(-c2nc3ccc(OCCN4CCCCC4)cc3n2Cc2ccccc2C(F)(F)F)cc(OC)c1OC [Example 105, 1-(2-trifluoromethylbenzyl)-2-(3,4,5-trimethoxyphenyl)-6-[2-(piperidin-1-yl)ethoxy]benzimidazole] | 5.17 µM
17 | Cc1cccc(-c2nc3ccc(OCCCN4CCOCC4)cc3n2Cc2ccccc2)c1 [Example 99, 1-benzyl-2-(3-methylphenyl)-6-[3-(morpholin-4-yl)propoxy)benzimidazole] | 3.08 µM
